The values that follow come from patent US4906666A, “Hydroxamic acids and pharmaceutical compositions containing them, and anti-allergic use thereof” (Boehringer Mannheim GmbH, priority 1986, dated 1990).

Each structure is given as a SMILES string.

The first assay relates to passively sensitized strip of pulmonary parenchyma (guinea pig). Kind of assay: Inhibition of antigen-caused constriction of passively sensitized guinea pig pulmonary parenchyma strips in vitro (Organ Bath). Format: cell-based, Pirbright-White guinea pigs. The note with it: Cavia porcellus, concentration 5 μg/ml, 20 min preincubation at 37° C., ovalbumin constriction, read-out: Inhibition (%) of the antigen-induced constriction, Organ Bath. An excerpt: Activity of the inventive compounds was shown by the following testing in vitro. […] For this study of the inventive compounds, a measurement was made of the inhibition of the antigen-caused constriction of passively sensitized strips of guinea pig lung parenchyma, as described herewith:
Pirbright-White guinea pigs were stunned by a blow to the neck and bled. The lungs were flushed largely free of blood in situ with Krebs' buffer, pH 7.4.
Then the lung was removed, cut into strips (approx. 20×4×4 mm) and the strips were passively sensitized for one hour at room temperature with a 1:50 dilution of a homologous anti-ovalbumin antiserum and then washed once with Krebs' buffer.
The antiserum had previously been produced as described by Davies et al, (Quantitative studies on anaphylaxis in guinea pigs passively sensitized with homologous antibody. Inter. Arch. Allergy 41, 648-654 (1971)) in guinea pigs of the same strain by the repeated injection of ovalbumin (2×crystallized) with the addition of complete Freund's adjuvant.
Until it was used, the antiserum was stored undiluted at -18° C.
Then the lung strips were suspended singly in 10-milliliter water baths with a bias weight of 1.2 g on an isometric measuring receptable.
Then the baths were filled with Krebs' buffer and continually gassed at 37°° C. with O2 (95%) and CO2 (5%).
The constrictions of the lung strips were recorded through an amplifier on a plotter.
After a 30-minute habituating phase, histamine control spasms were produced in order to establish the reactivity of the lung specimens, washed, then the test substance was preincubated for 20 minutes at 37° C., and then the ovalbumin constriction was produced.
(§1) The inhibiting action of the compounds according to the invention was expressed as a percentage reduction of the constriction amplitude of the "specimens with the test substance" in proportion to the "untreated control constrictions."
For `C=CCc1c(OCCCSCCc2nn[nH]n2)ccc(C(C)=O)c1O` [Example 6d, 5-{S--[3-(4-acetyl-3-hydroxy-2-allylphenoxy)-propyl]-2-thioethyl}-(1H)-tetrazole], the inhibition (usually the change of the read-out against control, counted positive when it falls) at 5 µg/mL worked out at 24%.

For the compound `CCCc1c(OCCCSCCC(=O)N(C)O)ccc(C(C)=O)c1O` [Example 2i, N--hydroxy-N--methyl-S--[3-(4-acetyl-3-hydroxy-2-propyl-phenoxy)-propyl]-3-thio-propionic acid amide], the inhibition at 5 µg/mL worked out at 36%.

The assay is the same for the next values; noted with them: concentration 5 μg/ml, 20 min preincubation at 37° C., ovalbumin constriction.
For the compound `CCCc1c(OCC#CCSCCC(=O)N(C)O)ccc(C(C)=O)c1O` [Example 2g, N--hydroxy-N--methyl-S--[4-(acetyl-3-hydroxy-2-propyl-phenoxy)-but-2-ynyl]-3-thiopropionic acid amide], the “Inhibition (%) of the antigen-induced constriction, Organ Bath” value was determined as 67%.

The next assay has the same test system. Kind of assay: Inhibition of the antigen-induced constriction on the passively sensitized strip of pulmonary parenchyma, Superfusion. The note with it: Cavia porcellus, concentration 20 μM. Format: cell-based.
Source text: as §1
For `CCCc1c(OCCCCSCC(=O)N(C)O)ccc(C(C)=O)c1O` [Example 2f, N--hydroxy-N--methyl-S--[4-(4-acetyl-3-hydroxy-2-propyl-phenoxy)-butyl]-thioacetamide], the inhibition at 20 µM came out at 48%.

As for `CCCCCC(O)c1cccc(OCC(O)CSCCCC(=O)N(C)O)c1` (stereo not shown) [Example 2m, N--hydroxy-N--methyl-S--[3-(3-{1-hydroxyhexyl}-phenoxy)-2-hydroxypropyl]-4-thiobutyric acid amide], the inhibition at 20 µM came to 29%.

For `CCCCCC(O)c1cccc(OCC=CCSCCC(=O)N(C)O)c1` (stereo not shown) [Example 2o, N--hydroxy-N--methyl-S--[4-(3-{1-hydroxyhexyl}-phenoxy)-but-2-enyl]-3-thiopropionic acid amide], the inhibition at 20 µM was found to be 42%.

Take `CCCCCC(O)c1cccc(OCCCSCCCC(=O)NO)c1` (stereo not shown) [Example 9a, N--hydroxy-S--[3-(3-{1-hydroxy-hexyl}-phenoxy)-propyl]-4-thiobutyric acid amide]: the inhibition at 20 µM came to 11%.

Regarding `CCCc1c(OCCCCSCCC(=O)N(C)O)ccc(C(C)=O)c1O` [Example 2c, N--hydroxy-N--methyl-S--[4-(4-acetyl-3-hydroxy-2-propyl-phenoxy)-butyl]-3-thio-propionic acid amide], the inhibition at 20 µM was 72%.

As for `CCCCCc1ccccc1OCCCSCCc1nn[nH]n1` [Example 6c, 5-{S--[3-(2-pentylphenoxy)-propyl]-2-thioethyl}-(1H)-tetrazole], the inhibition at 20 µM worked out at 13%.

As to `CCCCCC(O)c1cccc(OCCCCSCCC(=O)N(C)O)c1` (stereo not shown) [Example 2n, N--hydroxy-N--methyl-S--[4-(3-{1-hydroxyhexyl}-phenoxy)-butyl]-3-thiopropronic acid amide], the inhibition at 20 µM is 33%.

On to `CCCCCC(O)c1cccc(OCCCCSCCC(=O)Nc2nn[nH]n2)c1` (stereo not shown) [Example 4e, N--[(1H)-tetrazol-5-yl]-S--[4-(3-{1-hydroxyhexyl}-phenoxy)-butyl]-3-thiopropionic acid amide], for which the inhibition at 20 µM amounted to 73%.

For the compound `CCCCCC(O)c1cccc(OCCCCSCCC(=O)NO)c1` (stereo not shown) [Example 9c, N--hydroxy-S--[4-(3-{1-hydroxy-hexyl}phenoxy)-butyl]-3-thiopropionic acid amide], the inhibition at 20 µM is 27%.

On to `CCCCCC(O)c1cccc(OCCCSCCCC(=O)N(C)O)c1` (stereo not shown) [Example 2l, N--hydroxy-N--methyl-S--[3-(3-{1-hydroxyhexyl}-phenoxy)-propyl]-4-thiobutyric acid amide], for which the inhibition at 20 µM was 44%.

Take `CCCc1c(OCCCSCC(=O)N(C)O)ccc(C(C)=O)c1O` [Example 1, N-Hydroxy-N-methyl-S-[3-(4-acetyl-3-hydroxy-2-propylphenoxy)-propyl]-thioacetamide]: the inhibition at 20 µM was determined as 39%.

In the case of `O=C(CCSCCCOc1ccc(Cl)c(Cl)c1)Nc1nn[nH]n1` [Example 4g, N--[(1H)-tetrazol-5-yl]-S--[3-(3,4-dichlorophenoxy)-propyl]-3-thiopropionic acid amide], the inhibition at 20 µM was determined as 75%.

Regarding `CCCc1c(OCCCSCCC(=O)ONC2CCCCC2)ccc(C(C)=O)c1O` [Example 2t, O--[S--(3-{4-acetyl-3-hydroxy-2-propylphenoxy}-propyl)-3-thiopropionyl]-cyclohexyl-hydroxylamine], the inhibition at 20 µM was 15%.

For `CCCCCC(O)c1cccc(OCC=CCSCCC(=O)Nc2nn[nH]n2)c1` (stereo not shown) [Example 4f, N--[(1H)-tetrazol-5-yl]-S--[4-(3-{1-hydroxyhexyl}-phenoxy)-but-2-enyl]-3-thiopropionic acid amide], the inhibition at 20 µM was 26%.

For the compound `CCCCCC(O)c1cccc(OCC(O)CSCCCC(=O)Nc2nn[nH]n2)c1` (stereo not shown) [Example 4d], the inhibition at 20 µM was found to be 83%.

For the compound `CCCCCC(O)c1cccc(OCC(O)CSCCCC(=O)NO)c1` (stereo not shown) [Example 9b, N--hydroxy-S--[3-(3-{1-hydroxy-hexyl}-phenoxy)-2-hydroxy-propyl]-4-thiobutyric acid amide], the inhibition at 20 µM came to 21%.

Consider `CCCc1c(OCCCSCCc2nn[nH]n2)ccc(C(C)=O)c1O` [Example 6b, 5-{S--[3-(4-acetyl-3-hydroxy-2-propylphenoxy)-propyl]-2-thioethyl}-(1H)-tetrazole], for which the inhibition at 20 µM is 55%.

Take `CCCCCC(O)c1cccc(OCCCSCCCC(=O)Nc2nn[nH]n2)c1` (stereo not shown) [Example 4c, N--[(1H)-tetrazol-5-yl]-S--[3-(3-{1-hydroxyhexyl}-phenoxy)-propyl]-4-thiobutyric acid amide]: the inhibition at 20 µM was found to be 29%.

With `CCCc1c(OCCCSCCC(=O)N(C)O)ccc(C(C)=O)c1O` [Example 2i, N--hydroxy-N--methyl-S--[3-(4-acetyl-3-hydroxy-2-propyl-phenoxy)-propyl]-3-thio-propionic acid amide], the inhibition at 20 µM was 63%.

Regarding `CCCc1c(OCCCSCCSc2nn[nH]n2)ccc(C(C)=O)c1O` [Example 7, {S-[3-(4-Acetyl-3-hydroxy-2-propylphenoxy)-propyl]-2-thioethyl}-5-mercapto-(1H)-tetrazole], the inhibition at 20 µM amounted to 29%.

With `CCCc1c(OCCCSCCCCCc2nn[nH]n2)ccc(C(C)=O)c1O` [Example 6a, 5-{S--[3-(4-acetyl-3-hydroxy-2-propylphenoxy)-propyl]-5-thiopentyl}-(1H)-tetrazole], the inhibition at 20 µM is 70%.

Turning to `CCCCCc1cccc(OCCCSCCC(=O)N(C)O)c1` [Example 2b, N--hydroxy-N--methyl-S--[3-(3-pentylphenoxy)-propyl]-3-thiopropionic acid amide], the inhibition at 20 µM came to 58%.
